Reference: US11407765B2, “Tetracyclic heteroaryl compounds” (AstraZeneca AB, priority 2018, dated 2022)
Where two headings read alike, the source gives them in different places. One block for each compound: values may come before it.

Legend:
KRasG12C [1] = molecular target: T1, KRasG12C (Homo sapiens, UniProt P01116, G12C); experiment: KRasG12C mass spectrometry adducting assay; type: binding; conditions: 10 μM test compound, 4 μM GDP loaded KRasG12C, 4 hours
T1 construct: biotin (biotinylated); made in house
Description: KRasG12C Mass Spectrometry Adducting Assay
Enzyme solutions were prepared in assay buffer containing 20 mM HEPES (pH 7.5), 5 mM MgCl2, and 150 mM NaCl. […] The plate was sealed before reading on a Xevo G2 QTOF (Waters) and Acquity LC system (Waters). 10 μl of sample was injected onto a Xbridge BEH300; C4; 3.5 um; 2.1×50 mm column (Waters) running a 3 minute gradient. Blank samples were run in between each test sample.
Data was analysed in Mass Lynx software (Waters), the Total ion count (TIC) trace was used and the eluted protein peak data combined. Using the combined spectrum the data was deconvoluted using MaxEnt1 method. The peak area for apo-protein KRas^G12C (APO) and KRAS+relative cmpd mass (adduct) were measured, and a percentage adduct was calculated using the following calculation: Percent adduct=100*(area of adduct peak/(sum of APO+adduct peaks)

KRasG12C [2] = molecular target: T1, KRasG12C; experiment: KRasG12C functional assay (HTRF, SOS-mediated nucleotide exchange / Raf RBD binding); type: biochemical; conditions: 4 hrs incubation with GDP loaded biotinylated KRasG12C, single experiment or average of two or more
Description: KRasG12C Functional Assay
All enzyme and substrate solutions were prepared in assay buffer containing 20 mM HEPES (pH 7.5), 5 mM MgCl2, 150 mM NaCl, and 0.01% Tween 20. […] In a separate mix 20 nM GST-Raf Ras binding domain (GST-Raf RBD, purified in house) and 4 μg/ml anti-GST XL665 antibody (Cisbio) was prepared in assay buffer containing 50 mM Potassium Fluoride and 0.05 mg/ml BSA and equilibrated for 4 hours before adding 0.6 μM Guanosine 5′-[γ-thio]triphosphate (GTPγS, Sigma) and 0.08 μM SOS (purified in house). 5 μl of the GST-RAF RBD mix was then dispensed into each well of the assay plate. […] This is detected simultaneously via the specific binding interaction between active GTPγS KRas^G12C with GST-Raf RBD which brings the europium and XL665 into close proximity enabling an increased FRET signal to be detected on a Pherastar (BMG) plate reader equipped with the HTRF filter module. […] IC50 values were calculated from normalised dose-response response FRET data curve fitted in Genedata screener (Basel, Switzerland).

[3] = In vivo pharmacokinetics in rat (oral bioavailability, clearance)
[4] = Caco AB cell permeability; type: in vitro ADME; conditions: human, Caco-2; A to B
Half life in rat blood = type: in vitro ADME
[5] = read-out: KRasG12C functional assay IC50 value
[6] = KRasG12C functional assay IC50 value

T1 sequence (P01116 1-188 isoform P01116-2 G12C): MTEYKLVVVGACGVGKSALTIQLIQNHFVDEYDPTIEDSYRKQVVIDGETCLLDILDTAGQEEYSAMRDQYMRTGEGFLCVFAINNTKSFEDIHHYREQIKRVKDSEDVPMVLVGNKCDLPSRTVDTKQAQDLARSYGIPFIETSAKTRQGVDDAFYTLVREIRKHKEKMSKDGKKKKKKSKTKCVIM

SMILES: C=CC(=O)N1C[C@H]2COc3c(Cl)c(-c4c(O)cccc4F)c(F)c4ncnc(c34)N2C[C@H]1C (single isomer, unassigned) [Example 4]
- KRasG12C M. S. Binding Mean adduct % (KRasG12C [1]): 96%
- IC50 (KRasG12C [2]; [5]): 50 nM
- oral bioavailability [3]: 31%
- clearance ([3]; in vivo): 29 mL/min/kg
- Papp A→B [4]: 58 ×10⁻⁶ cm/s

SMILES: C=CC(=O)N1C[C@@H]2CCOc3c(Cl)c(-c4c(O)cccc4F)c(F)c4ncnc(c34)N2C[C@H]1C (single isomer, unassigned) [Example 39]
- IC50 (KRasG12C [2]; [6]): 3 nM
- clearance (Cl) [3]: 22 mL/min/kg
- oral bioavailability [3]: 75%
- Papp A→B [4]: 72 ×10⁻⁶ cm/s

SMILES: C=CC(=O)N1C[C@@H]2CCOc3c(Cl)c(-c4c(O)cccc4F)c(F)c4ncnc(c34)N2C[C@@H]1C (single isomer, unassigned) [Example 42]
- KRasG12C M. S. Binding Mean adduct % (KRasG12C [1]): 95.528%
- IC50 (KRasG12C [2]; [6]): 111 nM

SMILES: C=CC(=O)N1C[C@H]2COc3c(Cl)c(-c4c(O)cccc4F)c(F)c4ncnc(c34)N2C[C@@H]1C [Example 3, 1-[(8aS,11S)-6-Chloro-4-fluoro-5-(2-fluoro-6-hydroxyphenyl)-11-methyl-8a,9,11,12-tetrahydropyrazino[2′,1′:3,4][1,4]oxazepino[5,6,7-de]quinazolin-10(8H)-yl]prop-2-en-1-one]
- KRasG12C M. S. Binding Mean adduct % (KRasG12C [1]): 54%
- IC50 (KRasG12C [2]; [5]): 113 nM

SMILES: C=CC(=O)N1CCN2c3ncnc4c(F)c(-c5n[nH]c6ccccc56)c(Cl)c(c34)OC[C@@H]2C1 [Example 11, 1-[(8aS)-6-Chloro-4-fluoro-5-(1H-indazol-3-yl)-8a,9,11,12-tetrahydropyrazino[2′,1′:3,4][1,4]oxazepino[5,6,7-de]quinazolin-10(8H)-yl]prop-2-en-1-one]
- KRasG12C M. S. Binding Mean adduct % (KRasG12C [1]): 96%
- IC50 (KRasG12C [2]; [5]): 201 nM

SMILES: C=CC(=O)N1CCN2c3ncnc4c(F)c(-c5c(O)cccc5F)c(Cl)c(c34)OC[C@@H]2C1 [R^5 desmethyl compound, 1-((8aS)-6-chloro-4-fluoro-5-(2-fluoro-6-hydroxyphenyl)-8a,9,11,12-tetrahydropyrazino[2′,1′:3,4] [1,4]oxazepino[5,6,7-de]quinazolin-10(8H)-yl)prop-2-en-1-one, reference compound]
- half-life (Half life in rat blood): 12 min
- clearance ([3]; in vivo): 962 mL/min/kg
- bioavailability ([3]; in vivo, po): 0%
- Papp A→B [4]: 5.8 ×10⁻⁶ cm/s

The next lines start with the values.

- KRasG12C M. S. Binding Mean adduct % (KRasG12C [1]): 25%
- IC50 (KRasG12C [2]; [5]): 239 nM
SMILES: C=CC(=O)N1CCN2c3ncnc4c(F)c(-c5c(C)ccc6[nH]nnc56)c(Cl)c(c34)OC[C@@H]2C1 (single isomer, unassigned) [Example 18]

- KRasG12C M. S. Binding Mean adduct % (KRasG12C [1]): 94%
- IC50 (KRasG12C [2]; [5]): 24 nM
SMILES: C=CC(=O)N1CCN2c3ncnc4c(F)c(-c5c(C)ccc6[nH]nnc56)c(Cl)c(c34)OC[C@@H]2C1 (single isomer, unassigned) [Example 19]

- KRasG12C M. S. Binding Mean adduct % (KRasG12C [1]): 100%
- IC50 (KRasG12C [2]; [5]): 29 nM
SMILES: C=CC(=O)N1CCN2c3ncnc4c(F)c(-c5c(F)ccc6[nH]cnc56)c(Cl)c(c34)OC[C@@H]2C1 (single isomer, unassigned) [Example 20]

- KRasG12C M. S. Binding Mean adduct % (KRasG12C [1]): 95%
- IC50 (KRasG12C [2]; [5]): 30 nM
SMILES: C=CC(=O)N1CCN2c3ncnc4c(F)c(-c5c(F)ccc6[nH]ncc56)c(Cl)c(c34)OC[C@@H]2C1 (single isomer, unassigned) [Example 22]

- KRasG12C M. S. Binding Mean adduct % (KRasG12C [1]): 99%
- IC50 (KRasG12C [2]; [5]): 97 nM
SMILES: C=CC(=O)N1CCN2c3ncnc4c(F)c(-c5c(F)ccc6c5ncn6C)c(Cl)c(c34)OC[C@@H]2C1 (single isomer, unassigned) [Example 24]

- KRasG12C M. S. Binding Mean adduct % (KRasG12C [1]): 100%
- IC50 (KRasG12C [2]; [5]): 51 nM
SMILES: C=CC(=O)N1CCN2c3ncnc4c(F)c(-c5c(F)ccc6[nH]nnc56)c(Cl)c(c34)OC[C@@H]2C1 (single isomer, unassigned) [Example 26]

- KRasG12C M. S. Binding Mean adduct % (KRasG12C [1]): 92%
- IC50 (KRasG12C [2]; [5]): 5 nM
SMILES: C=CC(=O)N1CCN2c3ncnc4c(F)c(-c5c(F)ccc6cc[nH]c(=O)c56)c(Cl)c(c34)OC[C@@H]2C1 (single isomer, unassigned) [Example 28]

- KRasG12C M. S. Binding Mean adduct % (KRasG12C [1]): 94%
- IC50 (KRasG12C [2]; [5]): 170 nM
SMILES: Cc1ccc2[nH]ncc2c1-c1c(Cl)c2c3c(ncnc3c1F)N1CCN(C(=O)/C=C/CN(C)C)C[C@H]1CO2 (single isomer, unassigned) [Example 30]

- KRasG12C M. S. Binding Mean adduct % (KRasG12C [1]): 94%
- IC50 (KRasG12C [2]; [5]): 68 nM
SMILES: C=CC(=O)N1CCN2c3ncnc4c(F)c(-c5cccc6cc[nH]c(=O)c56)c(Cl)c(c34)OC[C@@H]2C1 [Example 10, 8-[(8aS)-6-Chloro-4-fluoro-10-(prop-2-enoyl)-8,8a,9,10,11,12-hexahydropyrazino[2′,1′:3,4][1,4]oxazepino[5,6,7-de]quinazolin-5-yl]isoquinolin-1(2H)-one]
